Data published in ChEMBL document CHEMBL3991601, “The target landscape of clinical kinase drugs” (Science, 2017).
Activity calls are given as the source filed them.

Experiments:
[1] = target: Protein-tyrosine kinase 2-beta (Homo sapiens, UniProt Q14289)
[2] = target: Elongation factor Tu, mitochondrial (Homo sapiens, UniProt P49411)
[3] = target: T1, Serine/threonine-protein kinase NLK (Homo sapiens, UniProt Q9UBE8)
T1 sequence (Q9UBE8 whole entry): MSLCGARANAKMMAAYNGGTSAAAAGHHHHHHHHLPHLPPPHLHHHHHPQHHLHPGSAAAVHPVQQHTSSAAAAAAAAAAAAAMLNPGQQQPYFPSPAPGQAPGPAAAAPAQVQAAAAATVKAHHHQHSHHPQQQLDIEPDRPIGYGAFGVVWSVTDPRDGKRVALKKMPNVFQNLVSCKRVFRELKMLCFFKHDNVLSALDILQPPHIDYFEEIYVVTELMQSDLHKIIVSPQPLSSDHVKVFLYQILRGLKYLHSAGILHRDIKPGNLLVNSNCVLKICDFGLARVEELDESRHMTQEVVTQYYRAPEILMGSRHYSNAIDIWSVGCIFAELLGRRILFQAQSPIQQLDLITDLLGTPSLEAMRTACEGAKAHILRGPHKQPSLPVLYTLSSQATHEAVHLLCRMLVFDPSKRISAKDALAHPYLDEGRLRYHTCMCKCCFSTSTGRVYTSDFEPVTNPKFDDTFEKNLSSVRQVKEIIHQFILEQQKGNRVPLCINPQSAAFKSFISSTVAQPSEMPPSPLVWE

[4] = target: T2, Serine/threonine-protein kinase A-Raf (Homo sapiens, UniProt P10398)
T2 sequence (P10398 whole entry): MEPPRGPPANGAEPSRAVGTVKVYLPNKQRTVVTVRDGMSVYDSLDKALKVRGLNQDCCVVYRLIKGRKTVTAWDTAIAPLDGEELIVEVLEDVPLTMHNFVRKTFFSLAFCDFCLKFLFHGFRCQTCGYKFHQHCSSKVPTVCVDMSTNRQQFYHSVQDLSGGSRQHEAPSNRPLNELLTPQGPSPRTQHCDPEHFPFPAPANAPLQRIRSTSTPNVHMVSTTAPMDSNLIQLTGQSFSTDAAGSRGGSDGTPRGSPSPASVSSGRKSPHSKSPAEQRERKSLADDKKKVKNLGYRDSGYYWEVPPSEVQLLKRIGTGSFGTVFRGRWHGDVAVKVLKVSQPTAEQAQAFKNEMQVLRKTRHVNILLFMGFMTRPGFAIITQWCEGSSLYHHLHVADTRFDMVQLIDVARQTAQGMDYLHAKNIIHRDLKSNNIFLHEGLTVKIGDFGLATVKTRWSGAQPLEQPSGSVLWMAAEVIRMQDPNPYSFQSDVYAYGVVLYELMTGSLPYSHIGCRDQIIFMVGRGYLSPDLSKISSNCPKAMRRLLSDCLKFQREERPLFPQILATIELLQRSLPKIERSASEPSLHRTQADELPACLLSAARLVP

[5] = target: T3, Peroxisomal acyl-coenzyme A oxidase 3 (Homo sapiens, UniProt O15254)
T3 sequence (O15254 whole entry): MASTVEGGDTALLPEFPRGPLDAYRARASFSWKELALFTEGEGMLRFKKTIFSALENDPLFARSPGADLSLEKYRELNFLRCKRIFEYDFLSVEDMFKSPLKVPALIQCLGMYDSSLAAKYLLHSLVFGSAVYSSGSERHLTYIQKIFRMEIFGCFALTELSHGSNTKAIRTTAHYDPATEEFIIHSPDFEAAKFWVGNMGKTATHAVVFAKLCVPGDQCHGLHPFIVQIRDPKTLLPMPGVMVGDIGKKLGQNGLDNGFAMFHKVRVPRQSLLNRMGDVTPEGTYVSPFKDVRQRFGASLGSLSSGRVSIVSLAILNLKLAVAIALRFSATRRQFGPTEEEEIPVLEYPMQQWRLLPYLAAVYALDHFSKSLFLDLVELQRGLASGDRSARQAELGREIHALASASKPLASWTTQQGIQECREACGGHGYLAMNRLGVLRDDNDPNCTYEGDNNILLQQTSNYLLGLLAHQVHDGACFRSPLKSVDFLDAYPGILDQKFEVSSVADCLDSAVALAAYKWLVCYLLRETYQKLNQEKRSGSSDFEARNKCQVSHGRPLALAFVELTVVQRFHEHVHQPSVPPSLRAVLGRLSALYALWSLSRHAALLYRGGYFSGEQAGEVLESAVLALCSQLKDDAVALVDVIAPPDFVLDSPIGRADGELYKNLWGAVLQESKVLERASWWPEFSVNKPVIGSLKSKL

Scaffold protein ILK = target: T4, Scaffold protein ILK (Homo sapiens, UniProt Q13418)
T4 sequence (Q13418 whole entry): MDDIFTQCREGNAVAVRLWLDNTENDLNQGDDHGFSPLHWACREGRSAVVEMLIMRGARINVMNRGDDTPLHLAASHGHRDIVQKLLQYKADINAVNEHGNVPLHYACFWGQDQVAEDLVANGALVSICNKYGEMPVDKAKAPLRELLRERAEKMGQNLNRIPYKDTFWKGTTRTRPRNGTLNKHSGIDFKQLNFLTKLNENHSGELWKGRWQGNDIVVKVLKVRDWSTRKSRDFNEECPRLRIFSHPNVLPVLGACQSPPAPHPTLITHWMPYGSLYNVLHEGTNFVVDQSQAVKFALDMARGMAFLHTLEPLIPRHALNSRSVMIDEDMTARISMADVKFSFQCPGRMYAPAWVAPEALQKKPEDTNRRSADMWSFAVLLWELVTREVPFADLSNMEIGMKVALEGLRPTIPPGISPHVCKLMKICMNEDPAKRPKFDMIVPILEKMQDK
Also: in the data inactive means no Kd found up to 30 µM.

Sequence of Protein-tyrosine kinase 2-beta (Q14289 whole entry): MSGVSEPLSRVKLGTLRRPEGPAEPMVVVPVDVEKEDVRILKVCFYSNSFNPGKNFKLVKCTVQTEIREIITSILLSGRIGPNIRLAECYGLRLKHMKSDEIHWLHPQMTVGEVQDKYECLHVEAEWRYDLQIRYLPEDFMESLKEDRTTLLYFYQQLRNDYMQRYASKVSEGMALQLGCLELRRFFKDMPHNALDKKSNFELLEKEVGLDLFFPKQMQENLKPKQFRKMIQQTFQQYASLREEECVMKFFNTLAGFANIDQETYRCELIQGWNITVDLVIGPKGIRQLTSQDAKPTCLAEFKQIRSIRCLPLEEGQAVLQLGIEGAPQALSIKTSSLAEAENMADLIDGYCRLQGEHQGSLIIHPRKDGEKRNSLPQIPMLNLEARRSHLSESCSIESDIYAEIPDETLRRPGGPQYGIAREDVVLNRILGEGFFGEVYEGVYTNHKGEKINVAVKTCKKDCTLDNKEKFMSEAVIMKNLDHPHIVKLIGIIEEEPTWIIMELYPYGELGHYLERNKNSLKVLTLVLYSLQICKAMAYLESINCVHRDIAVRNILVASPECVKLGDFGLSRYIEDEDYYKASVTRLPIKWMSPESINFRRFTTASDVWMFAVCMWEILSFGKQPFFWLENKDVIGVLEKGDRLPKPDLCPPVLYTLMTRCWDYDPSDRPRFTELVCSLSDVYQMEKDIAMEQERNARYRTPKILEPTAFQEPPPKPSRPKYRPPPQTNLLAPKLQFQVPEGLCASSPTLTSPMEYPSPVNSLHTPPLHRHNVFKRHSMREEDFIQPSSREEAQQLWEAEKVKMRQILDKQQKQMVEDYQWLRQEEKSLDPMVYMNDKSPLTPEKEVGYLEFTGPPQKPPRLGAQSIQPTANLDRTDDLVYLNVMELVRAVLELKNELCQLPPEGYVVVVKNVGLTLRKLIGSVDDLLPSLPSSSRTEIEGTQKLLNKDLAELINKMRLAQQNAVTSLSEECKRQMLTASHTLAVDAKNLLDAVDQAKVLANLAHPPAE

Compound | Kd [1] | Kd [2] | Kd [3] | Kd [4] | Kd [5] | Kd (Scaffold protein ILK)
CCc1cnn2c(NCc3ccc[n+]([O-])c3)cc(N3CCCC[C@H]3CCO)nc12 [DINACICLIB] | > 30 µM (inactive) | > 30 µM (inactive) | > 30 µM (inactive) | > 30 µM (inactive) | > 30 µM (inactive) | > 30 µM (inactive)
Cn1ncc(Cl)c1-c1cc(C(=O)N[C@H](CN)Cc2cccc(F)c2)sc1Cl [AFURESERTIB] | > 30 µM (inactive) | > 30 µM (inactive) | > 30 µM (inactive) | > 30 µM (inactive) | > 30 µM (inactive) | > 30 µM (inactive)
CC[C@H](Nc1ncnc2[nH]cnc12)c1nc2cccc(F)c2c(=O)n1-c1ccccc1 [IDELALISIB] | > 30 µM (inactive) | > 30 µM (inactive) | > 30 µM (inactive) | > 30 µM (inactive) | > 30 µM (inactive) | > 30 µM (inactive)
CN(C)C(=O)c1cc2cnc(Nc3ccc(N4CCNCC4)cn3)nc2n1C1CCCC1 [RIBOCICLIB] | > 30 µM (inactive) | > 30 µM (inactive) | > 30 µM (inactive) | > 30 µM (inactive) | > 30 µM (inactive) | > 30 µM (inactive)
C[C@@H]1CN(Cc2ccc(F)cc2)[C@@H](C)CN1C(=O)c1cc2c(C(=O)C(=O)N(C)C)cn(C)c2cc1Cl [TALMAPIMOD] | > 30 µM (inactive) | > 30 µM (inactive) | > 30 µM (inactive) | > 30 µM (inactive) | > 30 µM (inactive) | > 30 µM (inactive)
CO[C@H]1C[C@@H]2CC[C@@H](C)[C@@](O)(O2)C(=O)C(=O)N2CCCC[C@H]2C(=O)O[C@H]([C@H](C)C[C@@H]2CC[C@@H](OCCO)[C@H](OC)C2)CC(=O)[C@H](C)/C=C(\C)[C@@H](O)[C@@H](OC)C(=O)[C@H](C)C[C@H](C)/C=C/C=C/C=C/1C [EVEROLIMUS] | > 30 µM (inactive) | > 30 µM (inactive) | > 30 µM (inactive) | > 30 µM (inactive) | > 30 µM (inactive) | > 30 µM (inactive)
CC(C)Nc1cc(-c2c[nH]c(C(=O)N[C@H](CO)c3cccc(Cl)c3)c2)c(Cl)cn1 [ULIXERTINIB] | > 30 µM (inactive) | > 30 µM (inactive) | > 30 µM (inactive) | > 30 µM (inactive) | > 30 µM (inactive) | > 30 µM (inactive)
COc1cc2nccc(Oc3ccc(NC(=O)NC4CC4)c(Cl)c3)c2cc1C(N)=O [LENVATINIB] | > 30 µM (inactive) | > 30 µM (inactive) | > 30 µM (inactive) | > 30 µM (inactive) | > 30 µM (inactive) | > 30 µM (inactive)
CN1CCN(c2ccc3nc(-c4c(N)c5c(F)cccc5[nH]c4=O)[nH]c3c2)CC1 [DOVITINIB] | – | > 30 µM (inactive) | – | > 30 µM (inactive) | > 30 µM (inactive) | > 30 µM (inactive)
O=C(Nc1cccc(Cl)c1)Nc1ncc(CCNc2ncnc3ccsc23)s1 [SNS-314] | > 30 µM (inactive) | > 30 µM (inactive) | – | > 30 µM (inactive) | 0.026 µM (active) | > 30 µM (inactive)
C1=C/COCc2cc(ccc2OCCN2CCCC2)Nc2nccc(n2)-c2cccc(c2)COC/1 [PACRITINIB] | > 30 µM (inactive) | > 30 µM (inactive) | > 30 µM (inactive) | > 30 µM (inactive) | > 30 µM (inactive) | –
COc1cc2nccc(Oc3ccc(NC(=O)Nc4cc(C)on4)c(Cl)c3)c2cc1OC [TIVOZANIB] | > 30 µM (inactive) | > 30 µM (inactive) | > 30 µM (inactive) | – | > 30 µM (inactive) | > 30 µM (inactive)
C[C@@H](c1ccc2nccn2c1)n1nnc2ncc(-c3cnn(C)c3)nc21 [SAVOLITINIB] | > 30 µM (inactive) | > 30 µM (inactive) | > 30 µM (inactive) | > 30 µM (inactive) | > 30 µM (inactive) | –
Cc1cn(-c2cc(NC(=O)c3ccc(C)c(Nc4nccc(-c5cccnc5)n4)c3)cc(C(F)(F)F)c2)cn1 [NILOTINIB] | – | > 30 µM (inactive) | – | > 30 µM (inactive) | > 30 µM (inactive) | 0.02 µM
Nc1nc(N)c2nc(-c3cccc(O)c3)c(-c3cccc(O)c3)nc2n1 [TG100-115] | – | > 30 µM (inactive) | – | > 30 µM (inactive) | > 30 µM (inactive) | –
CN1N=C(N)c2cn([C@@H]3O[C@H](COP(=O)(O)O)[C@@H](O)[C@H]3O)c3ncnc1c23 [TRICIRIBINE PHOSPHATE] | > 30 µM (inactive) | > 30 µM (inactive) | – | – | > 30 µM (inactive) | –
O=c1sn(-c2cccc3ccccc23)c(=O)n1Cc1ccccc1 [TIDEGLUSIB] | > 30 µM (inactive) | > 30 µM (inactive) | > 30 µM (inactive) | > 30 µM (inactive) | > 30 µM (inactive) | –
Cc1ccc(S(=O)(=O)Nc2nc3ccccc3nc2Nc2ccc3nsnc3c2)cc1 | > 30 µM (inactive) | > 30 µM (inactive) | > 30 µM (inactive) | > 30 µM (inactive) | > 30 µM (inactive) | –
C=CC(=O)N1CCC(Oc2cc3c(Nc4ccc(Cl)c(Cl)c4F)ncnc3cc2OC)CC1 [POZIOTINIB] | > 30 µM (inactive) | > 30 µM (inactive) | > 30 µM (inactive) | > 30 µM (inactive) | > 30 µM (inactive) | –

Further lines, results first:

Kd [1] | Kd [2] | Kd [3] | Kd [4] | Kd [5] | Kd (Scaffold protein ILK) | Compound
0.343 µM (active) | > 30 µM (inactive) | > 30 µM (inactive) | > 30 µM (inactive) | > 30 µM (inactive) | > 30 µM (inactive) | O=C(O)[C@]1(Cc2cccc(Nc3nccs3)n2)CC[C@@H](Oc2cccc(Cl)c2F)CC1 [MK-5108]
> 30 µM (inactive) | > 30 µM (inactive) | – | > 30 µM (inactive) | > 30 µM (inactive) | > 30 µM (inactive) | O=C1NC(=O)/C(=C/c2ccc3nccc(-c4ccncc4)c3c2)S1 [GSK-1059615]
> 30 µM (inactive) | > 30 µM (inactive) | > 30 µM (inactive) | > 30 µM (inactive) | > 30 µM (inactive) | > 30 µM (inactive) | Cn1cc(-c2ccc3nnc(C(F)(F)c4ccc5ncccc5c4)n3n2)cn1 [JNJ-38877605]
– | > 30 µM (inactive) | – | > 30 µM (inactive) | > 30 µM (inactive) | > 30 µM (inactive) | CCn1c(-c2nonc2N)nc2c(C#CC(C)(C)O)ncc(OC[C@H]3CCCNC3)c21 [GSK-690693]
– | > 30 µM (inactive) | – | > 30 µM (inactive) | > 30 µM (inactive) | > 30 µM (inactive) | Cc1nc(N)sc1-c1ccnc(Nc2ccc(N3CCOCC3)cc2)n1 [CYC-116]
